From patent publication US20140120083A1, “TREATMENT OF CANCERS USING PI3 KINASE ISOFORM MODULATORS” (INFINITY PHARMACEUTICALS, INC., priority 2012, published 2014)
Values joined by “and” are separate entries in the source; they are usually repeats but may differ in a detail not shown here. Equal entries are not always repeated. “Also recorded” adds a separate entry of the source. Marks after values point to notes of the source that are not given here.

Assays:
[1] = Plasma protein binding, rat; format: in vitro ADME; conditions: 100 μM (41700 ng/mL)
Description: (§1) […]. […] […].

[2] = Plasma protein binding, monkey; format: in vitro ADME; conditions: 100 μM (41700 ng/mL)
Description: as §1

Pharmacokinetics, mouse = format: in vivo, BALB/c mice
Pharmacokinetics, dog = format: in vivo, Beagle dogs; conditions: for Foral: AUC0-last; for clearance / Vd / AUC(0-inf) / AUC(0-t) / Cmax / half-life / Tmax: beagle, in vivo; for Vd: read-out: Vss; for AUC(0-t): read-out: AUC0-last (AUC0-24)
human P-glycoprotein = biological target: T1, human P-glycoprotein (Homo sapiens, UniProt P08183); assay: Interaction with P-glycoprotein, Caco-2; format: in vitro ADME; conditions: Caco-2 cell monolayers
T1 construct: endogenous in cells; host or cells: Caco-2
T1 sequence (P08183 whole entry): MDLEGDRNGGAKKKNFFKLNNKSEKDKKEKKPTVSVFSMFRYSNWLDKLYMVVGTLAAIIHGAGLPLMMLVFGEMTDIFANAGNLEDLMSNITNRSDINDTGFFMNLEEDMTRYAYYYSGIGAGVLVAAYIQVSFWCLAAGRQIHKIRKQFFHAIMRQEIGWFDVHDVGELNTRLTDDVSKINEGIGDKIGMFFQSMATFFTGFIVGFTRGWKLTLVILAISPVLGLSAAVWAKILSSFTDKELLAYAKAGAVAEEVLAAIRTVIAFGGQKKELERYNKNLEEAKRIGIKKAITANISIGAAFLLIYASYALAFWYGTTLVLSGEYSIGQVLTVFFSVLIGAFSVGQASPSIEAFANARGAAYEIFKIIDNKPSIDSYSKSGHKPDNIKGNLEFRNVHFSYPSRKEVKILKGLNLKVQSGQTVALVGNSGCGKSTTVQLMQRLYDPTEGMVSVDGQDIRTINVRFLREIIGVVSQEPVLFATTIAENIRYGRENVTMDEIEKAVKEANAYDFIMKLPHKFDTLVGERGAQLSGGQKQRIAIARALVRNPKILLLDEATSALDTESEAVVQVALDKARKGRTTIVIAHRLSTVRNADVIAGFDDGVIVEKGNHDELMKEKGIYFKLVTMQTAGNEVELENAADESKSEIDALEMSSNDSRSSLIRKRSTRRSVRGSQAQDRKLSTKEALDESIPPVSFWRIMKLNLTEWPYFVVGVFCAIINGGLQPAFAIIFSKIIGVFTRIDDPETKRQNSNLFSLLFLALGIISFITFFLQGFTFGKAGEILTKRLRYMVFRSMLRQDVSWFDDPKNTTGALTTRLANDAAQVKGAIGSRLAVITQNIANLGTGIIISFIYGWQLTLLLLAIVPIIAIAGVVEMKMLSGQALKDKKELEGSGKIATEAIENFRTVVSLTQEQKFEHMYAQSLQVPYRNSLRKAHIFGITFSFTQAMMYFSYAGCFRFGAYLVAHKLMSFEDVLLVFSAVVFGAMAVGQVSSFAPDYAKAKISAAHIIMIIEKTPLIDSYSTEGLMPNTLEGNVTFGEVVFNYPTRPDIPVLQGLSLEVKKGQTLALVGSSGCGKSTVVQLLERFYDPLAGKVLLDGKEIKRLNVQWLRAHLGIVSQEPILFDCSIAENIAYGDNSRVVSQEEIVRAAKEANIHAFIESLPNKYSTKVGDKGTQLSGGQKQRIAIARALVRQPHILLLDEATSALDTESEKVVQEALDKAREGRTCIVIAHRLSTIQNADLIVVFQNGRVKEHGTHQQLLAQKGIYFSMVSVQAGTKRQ

[3] = Phase 1 study in advanced hematologic malignancies, pharmacokinetics; format: in vivo, human; conditions: patients
Method: (§2) PK and PD markers were evaluated after the first dose (e.g., 8 mg BID) and at steady state. PD activity (PI3K inhibition) in whole blood was evaluated using a basophil activation assay which measured reduction in CD63 expression on the surface of basophils following ex vivo stimulation.

PI3K-δ and PI3K-γ = assay: Phase 1 study in advanced hematologic malignancies, pharmacodynamics; format: in vivo, human
Method: as §2

[4] = In vitro genetic toxicity studies
[5] = 13-week repeat-dose safety study, rat
[6] = 13-week repeat-dose safety study, monkey
[7] = Embryo/fetal developmental toxicity, rat
[8] = Embryo/fetal developmental toxicity, rabbit
[9] = Phase 1 study in advanced hematologic malignancies, safety
hematologic malignancies = assay: Phase 1 study in advanced hematologic malignancies, clinical response
[10] = po, 5 mg/kg, 5 mg/kg (study with 0.5 mg/kg IV)
[11] = po, 5 mg/kg, 5 mg/kg (study with 1 mg/kg IV)

Compound: C[C@H](Nc1ncnc2[nH]cnc12)c1cc2cccc(Cl)c2c(=O)n1-c1ccccc1 [Compound 292]
- protein bound [1]: 85.8%
- protein bound [2]: 76.8%
- half-life (Pharmacokinetics, mouse): less than 2 hrs
- AUC(0-inf) (Pharmacokinetics, mouse; BALB/c, in vivo, IV, 10 mg/kg): 1900 ng·h/mL
- AUC(0-t) (Pharmacokinetics, mouse; BALB/c, in vivo, IV, 10 mg/kg): 1900 ng·h/mL
- Cmax (Pharmacokinetics, mouse; BALB/c, in vivo, IV, 10 mg/kg): 5560 ng/mL
- Tmax (Pharmacokinetics, mouse; BALB/c, in vivo, IV, 10 mg/kg): 4.98 min
- clearance (Pharmacokinetics, mouse; BALB/c, in vivo, IV, 10 mg/kg): 87.5 mL/min/kg
- half-life (Pharmacokinetics, mouse; BALB/c, in vivo, IV, 10 mg/kg, read-out: T1/2 (converted)): 0.22 h
- Vd (Pharmacokinetics, mouse; BALB/c, in vivo, IV, 10 mg/kg, read-out: Vss): 1.14 L/kg
- AUC(0-t) (Pharmacokinetics, mouse; BALB/c, in vivo, PO, 10 mg/kg): 137 ng·h/mL
- Cmax (Pharmacokinetics, mouse; BALB/c, in vivo, PO, 10 mg/kg): 390 ng/mL
- Tmax (Pharmacokinetics, mouse; BALB/c, in vivo, PO, 10 mg/kg): 4.98 min
- Foral (Pharmacokinetics, mouse; PO, 10 mg/kg, calculated using AUC0-last): 7% and 7^i %
- Foral (Pharmacokinetics, dog; PO, 5 mg/kg, 0.5 mg/kg IV dose as reference): 97^g,i %
- Foral (Pharmacokinetics, dog; PO, 5 mg/kg, 1 mg/kg IV dose as reference): 40% and 40^h,i %
- clearance (Pharmacokinetics, dog; IV, 0.5 mg/kg): 0.85 mL/min/kg
- Vd (Pharmacokinetics, dog; IV, 0.5 mg/kg): 0.13 L/kg
- clearance (Pharmacokinetics, dog; IV, 1 mg/kg): 3.23 mL/min/kg
- Vd (Pharmacokinetics, dog; IV, 1 mg/kg): 0.493 L/kg
- AUC(0-inf) (Pharmacokinetics, dog; iv, 0.5 mg/kg): 11900 ng·h/mL
- AUC(0-t) (Pharmacokinetics, dog; iv, 0.5 mg/kg, IV, 0.5 mg/kg): 11700 ng·h/mL
- Cmax (Pharmacokinetics, dog; iv, 0.5 mg/kg, IV, 0.5 mg/kg, read-out: Cmax (reported value is C0)): 4410 ng/mL
- half-life (Pharmacokinetics, dog; iv, 0.5 mg/kg, IV, 0.5 mg/kg, read-out: T1/2 (converted)): 2 h
- AUC(0-inf) (Pharmacokinetics, dog; iv, 1 mg/kg): 6270 ng·h/mL
- AUC(0-t) (Pharmacokinetics, dog; iv, 1 mg/kg, IV, 1 mg/kg): 5880 ng·h/mL
- Cmax (Pharmacokinetics, dog; iv, 1 mg/kg, IV, 1 mg/kg, read-out: Cmax (reported value is C0)): 1800 ng/mL
- half-life (Pharmacokinetics, dog; iv, 1 mg/kg, IV, 1 mg/kg, read-out: T1/2 (converted)): 1.83 h
- AUC(0-inf) (Pharmacokinetics, dog; [10]): 107000 ng·h/mL
- Tmax (Pharmacokinetics, dog; [10]): 3 h
- AUC(0-inf) (Pharmacokinetics, dog; [11]): 13800 ng·h/mL
- Tmax (Pharmacokinetics, dog; [11]): 1.33 h
- AUC(0-t) (Pharmacokinetics, dog; po, 5 mg/kg, PO, 5 mg/kg (study with 0.5 mg/kg IV)): 105000 ng·h/mL
- Cmax (Pharmacokinetics, dog; po, 5 mg/kg, PO, 5 mg/kg (study with 0.5 mg/kg IV), read-out: Cmax): 9600 ng/mL
- half-life (Pharmacokinetics, dog; po, 5 mg/kg, PO, 5 mg/kg (study with 0.5 mg/kg IV), read-out: T1/2 (converted)): 3.9 h
- AUC(0-t) (Pharmacokinetics, dog; po, 5 mg/kg, PO, 5 mg/kg (study with 1 mg/kg IV)): 10900 ng·h/mL
- Cmax (Pharmacokinetics, dog; po, 5 mg/kg, PO, 5 mg/kg (study with 1 mg/kg IV), read-out: Cmax): 2370 ng/mL
- half-life (Pharmacokinetics, dog; po, 5 mg/kg, PO, 5 mg/kg (study with 1 mg/kg IV), read-out: T1/2 (converted)): 3.15 h
- half-life (Pharmacokinetics, dog; read-out: half-life (converted)): 2 h
- P-gp substrate (human P-glycoprotein): is a P-gp substrate
- inhibition of P-gp transport (human P-glycoprotein): has the potential to inhibit the active transport of other P-gp substrates
- half-life ([3]; human, in vivo, oral, read-out: eliminating t1/2): 6 to 10 h
- doses with mean steady-state trough above levels sufficient for PI3K-δ inhibition [3]: > 15 mg BID
- plasma Cmax and AUC over the dose range ([3]; 8-50 mg BID): dose-proportional increases
- PK profile ([3]; through 50 mg BID): linear
- AKT phosphorylation in CLL/SLL cells (PI3K-δ and PI3K-γ; flow cytometry, after one dose (25 mg)): rapid and sustained inhibition
- doses achieving complete inhibition of PI3K-δ (PI3K-δ and PI3K-γ; patients): ≥ 15 mg BID
- doses increasingly suppressing PI3K-γ (PI3K-δ and PI3K-γ; patients): ≥ 25 mg BID
- genetic toxicity [4]: no genetic toxicity
- NOAEL ([5]; 13-week rat study, oral gavage): 150 mg/m^2/day
- NOAEL at 13 weeks ([5]; both, rat, in vivo, po): 25 mg/kg/day
- mean AUC0-24 hr at the NOAEL ([5]; rat, Day 91, combined sexes): 14150 ng·h/mL
- NOAEL ([6]; 13-week monkey study, oral gavage): 60 mg/m^2/day
- NOAEL at 13 weeks ([6]; both, cynomolgus monkey, in vivo, po): 5 mg/kg/day
- mean AUC0-24 hr at the NOAEL ([6]; monkey, Day 91, combined sexes): 4015 ng·h/mL
- NOAEL ([7]; female, rat, in vivo): 35 mg/kg/day
- mean AUC0-24 hr at the NOAEL ([7]; pregnant rats, last day of dosing): 62200 ng·h/mL
- maternal and fetal NOAEL ([7]; rat): 210 mg/m^2/day
- NOAEL ([8]; female, rabbit, in vivo): 75 mg/kg/day
- mean AUC0-24 hr at the NOAEL ([8]; pregnant rabbits, last day of dosing): 66200 ng·h/mL
- maternal and fetal NOAEL ([8]; rabbit): 900 mg/m^2/day
- dose limiting toxicity ([9]; 15 mg BID dose cohort): Grade 4 neutropenia
- AE Leading to Discontinuation ([9]; 25 mg BID (n = 34)): 2 n
- Any AE ([9]; 25 mg BID (n = 34)): 27 n
- Any AE Grade 3 ([9]; 25 mg BID (n = 34)): 7 n
- Any AE Grade 4 ([9]; 25 mg BID (n = 34)): 5 n
- Deaths on Study ([9]; 25 mg BID (n = 34)): 0 n
- Dose Reduced (New Grade 3/4 ALT) ([9]; 25 mg BID (n = 34)): 3 n
- Dose Reduced (New Grade 3/4 ANC) ([9]; 25 mg BID (n = 34)): 2 n
- New Grade 3 ALT ([9]; 25 mg BID (n = 34)): 3 n
- New Grade 3 ANC ([9]; 25 mg BID (n = 34)): 2 n
- New Grade 4 ANC ([9]; 25 mg BID (n = 34)): 4 n
- Related AE ([9]; 25 mg BID (n = 34)): 18 n
- Related Grade 3 AE ([9]; 25 mg BID (n = 34)): 4/4 n
- Related Grade 4 AE ([9]; 25 mg BID (n = 34)): 4/4 n
- SAE ([9]; 25 mg BID (n = 34)): 4 n
- dose limiting toxicity ([9]; 75 mg BID): Grade 3 cellulitis
- new Grade>3 neutropenia, n (%) ([9]; 20 patients, 8-50 mg BID): 6 (30%)
- new Grade>3 thrombocytopenia, n (%) ([9]; 20 patients, 8-50 mg BID): 1 (5%)
- patients with AEs Grade>3 ([9]; 20 patients, 8-50 mg BID): 7 (35%)
- patients with adverse events ([9]; 20 patients, 8-50 mg BID): 13 (65%)
- patients with treatment-related AEs ([9]; 20 patients, 8-50 mg BID): 11 patients
- patients with treatment-related AEs Grade>3 ([9]; 20 patients, 8-50 mg BID): 5 patients
- Grade 3 ALT/AST elevations, n (%) ([9]; 20 patients, 8-50 mg BID, MM patient): 1 (5%)
- AE Leading to Discontinuation ([9]; Safety Population (n = 55)): 3 n
- Any AE ([9]; Safety Population (n = 55)): 46 n
- Any AE Grade 3 ([9]; Safety Population (n = 55)): 18 n
- Any AE Grade 4 ([9]; Safety Population (n = 55)): 8 n
- Deaths on Study ([9]; Safety Population (n = 55)): 3 n
- Dose Reduced (New Grade 3/4 ALT) ([9]; Safety Population (n = 55)): 6 n
- Dose Reduced (New Grade 3/4 ANC) ([9]; Safety Population (n = 55)): 5 n
- New Grade 3 ALT ([9]; Safety Population (n = 55)): 5 n
- New Grade 3 ANC ([9]; Safety Population (n = 55)): 10 n
- New Grade 4 ANC ([9]; Safety Population (n = 55)): 5 n
- Related AE ([9]; Safety Population (n = 55)): 31 n
- Related Grade 3 AE ([9]; Safety Population (n = 55)): 14 n
- Related Grade 4 AE ([9]; Safety Population (n = 55)): 6 n
- SAE ([9]; Safety Population (n = 55)): 11 n
- MTD ([9]; after dose escalation to 75 mg BID): not yet reached
- tolerability ([9]; patients with advanced hematologic malignancies): well tolerated; also recorded: well-tolerated
- onset of clinical activity (hematologic malignancies; CLL/SLL): Rapid onset
- responses in evaluable patients (hematologic malignancies; CLL/SLL, 8, 15, and 25 mg BID dose levels): ⅔
- Best Observed Response CR (hematologic malignancies; CLL/SLL, 11 evaluable): 0 n
- Best Observed Response PR (hematologic malignancies; CLL/SLL, 11 evaluable): 6 n
- Best Observed Response SD (hematologic malignancies; CLL/SLL, 11 evaluable, four nodal responses): 4^c n
- Best Observed Response PR (hematologic malignancies; HL, 2 evaluable): 0 n
- Best Observed Response SD (hematologic malignancies; HL, 2 evaluable): 0 n
- Best Observed Response CR (hematologic malignancies; MCL, 3 evaluable): 0 n
- Best Observed Response PR (hematologic malignancies; MCL, 3 evaluable): 2 n
- Best Observed Response SD (hematologic malignancies; MCL, 3 evaluable): 0 n
- responses in evaluable patients (hematologic malignancies; MCL, 8, 15, and 25 mg BID dose levels): 1/1
- Best Observed Response CR (hematologic malignancies; MM, 3 evaluable): 0 n
- Best Observed Response PD (hematologic malignancies; MM, 3 evaluable): 2 n
- Best Observed Response PR (hematologic malignancies; MM, 3 evaluable): 0 n
- Best Observed Response PD (hematologic malignancies; T-Cell Lymphoma, 6 evaluable): 3 n
- doses at which responses were observed (hematologic malignancies; T-cell lymphoma and Hodgkin lymphoma): ≥ 50 mg BID
- Best Observed Response CR (hematologic malignancies; aNHL, 3 evaluable): 0 n
- Best Observed Response PD (hematologic malignancies; aNHL, 3 evaluable): 2 n
- Best Observed Response PR (hematologic malignancies; aNHL, 3 evaluable): 0 n
- tumor mass (hematologic malignancies; all indications and all dose levels evaluated): Reduction in tumor mass
- responses in evaluable patients (hematologic malignancies; iNHL, 8, 15, and 25 mg BID dose levels): ½
- Best Observed Response PR (hematologic malignancies; iNHL, 13 evaluable): 7 n
- Best Observed Response SD (hematologic malignancies; iNHL, 13 evaluable): 4 n
- doses at which responses were observed (hematologic malignancies; iNHL, CLL/SLL, and MCL): ≤ 50 mg BID
- pulmonary metastases by PET/CT (hematologic malignancies; patient, enteropathy-associated T-cell lymphoma, 2 cycles, 60 mg BID): complete resolution
